One test deals with hNav1.7 (Homo sapiens (Human), UniProt Q15858). The test can be described thus: Electrophysiology (EP) assay, whole-cell patch clamp. Type of test: cell-based. The following applies: read-out: EP Nav1.7 Ki. How it is done: Cells: The hNav1.7 expressing HEK-293 cells were plated on 35 mm culture dishes pre-coated with poly-D-lysine in standard DMEM culture media (Mediatech, Inc., Herndon, Va.) and incubated in a 5% CO2 incubator at 37° C. Cultured cells were used approximately 12-48 hours after plating.
hNav1.7, sequence (Q15858 other isoform, or with tags, fused parts or gaps): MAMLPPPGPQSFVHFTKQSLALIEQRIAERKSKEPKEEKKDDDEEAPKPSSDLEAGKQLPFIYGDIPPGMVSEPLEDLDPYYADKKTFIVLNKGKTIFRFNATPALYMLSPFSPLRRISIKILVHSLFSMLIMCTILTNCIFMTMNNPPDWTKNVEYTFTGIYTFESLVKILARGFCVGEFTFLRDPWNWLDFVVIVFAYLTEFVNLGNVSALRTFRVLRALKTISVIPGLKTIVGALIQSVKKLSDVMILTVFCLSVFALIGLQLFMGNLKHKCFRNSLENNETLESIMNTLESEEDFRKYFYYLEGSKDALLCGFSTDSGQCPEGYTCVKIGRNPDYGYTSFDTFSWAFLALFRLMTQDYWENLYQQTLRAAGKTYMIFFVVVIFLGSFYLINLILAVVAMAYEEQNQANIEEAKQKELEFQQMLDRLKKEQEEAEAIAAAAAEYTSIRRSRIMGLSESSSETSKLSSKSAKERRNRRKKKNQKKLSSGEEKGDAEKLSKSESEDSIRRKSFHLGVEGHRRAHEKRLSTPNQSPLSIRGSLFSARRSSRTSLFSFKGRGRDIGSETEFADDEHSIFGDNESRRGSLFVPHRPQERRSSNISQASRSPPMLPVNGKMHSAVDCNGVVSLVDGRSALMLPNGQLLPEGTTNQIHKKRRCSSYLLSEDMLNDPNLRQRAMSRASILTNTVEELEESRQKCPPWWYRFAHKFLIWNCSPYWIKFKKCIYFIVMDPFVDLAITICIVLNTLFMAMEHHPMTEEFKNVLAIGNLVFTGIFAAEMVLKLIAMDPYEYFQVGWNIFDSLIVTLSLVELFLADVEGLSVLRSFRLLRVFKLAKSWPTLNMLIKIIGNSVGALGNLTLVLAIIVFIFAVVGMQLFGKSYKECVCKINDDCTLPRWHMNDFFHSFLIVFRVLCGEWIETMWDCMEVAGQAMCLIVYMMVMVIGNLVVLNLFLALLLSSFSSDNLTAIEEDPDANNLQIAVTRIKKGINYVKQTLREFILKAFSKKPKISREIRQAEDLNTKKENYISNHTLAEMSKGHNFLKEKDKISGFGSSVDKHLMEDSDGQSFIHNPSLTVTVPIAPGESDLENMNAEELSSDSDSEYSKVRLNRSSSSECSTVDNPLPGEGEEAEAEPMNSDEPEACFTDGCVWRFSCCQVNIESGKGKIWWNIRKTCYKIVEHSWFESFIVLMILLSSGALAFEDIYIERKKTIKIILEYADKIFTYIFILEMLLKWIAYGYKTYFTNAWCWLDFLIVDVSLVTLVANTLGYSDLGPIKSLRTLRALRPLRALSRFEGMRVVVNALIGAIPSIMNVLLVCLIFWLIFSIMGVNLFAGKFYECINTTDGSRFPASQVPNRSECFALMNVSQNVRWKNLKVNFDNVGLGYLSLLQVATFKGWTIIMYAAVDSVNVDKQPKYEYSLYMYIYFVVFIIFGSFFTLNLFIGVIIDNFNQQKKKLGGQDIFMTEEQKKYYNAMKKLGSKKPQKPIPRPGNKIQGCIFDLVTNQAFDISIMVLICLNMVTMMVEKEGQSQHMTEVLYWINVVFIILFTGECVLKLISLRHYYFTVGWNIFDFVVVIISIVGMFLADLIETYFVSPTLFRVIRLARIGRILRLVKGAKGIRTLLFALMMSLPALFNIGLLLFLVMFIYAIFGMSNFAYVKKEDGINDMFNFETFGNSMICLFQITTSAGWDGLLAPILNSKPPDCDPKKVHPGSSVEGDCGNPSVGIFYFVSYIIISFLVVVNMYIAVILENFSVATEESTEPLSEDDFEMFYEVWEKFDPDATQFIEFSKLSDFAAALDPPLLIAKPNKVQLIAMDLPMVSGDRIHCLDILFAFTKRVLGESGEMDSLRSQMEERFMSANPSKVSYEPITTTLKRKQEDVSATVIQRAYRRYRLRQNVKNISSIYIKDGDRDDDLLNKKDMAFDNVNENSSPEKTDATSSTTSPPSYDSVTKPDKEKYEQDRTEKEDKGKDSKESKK
Electrophysiology: On the day of experimentation, the 35 mm dish was placed on the stage of an inverted microscope equipped with a perfusion system that continuously perfuses the culture dish with fresh recording media. A gravity driven superfusion system was used to apply test solutions directly to the cell under evaluation. This system consists of an array of glass pipette glass connected to a motorized horizontal translator. The outlet of the shooter was positioned approximately 100 μm from the cell of interest.
Gigaseals were formed and the whole-cell configuration was established in voltage clamp mode, and membrane currents generated by hNav1.7 were recorded in gap-free mode. […] Signals were sampled at 50 kHz and low pass filtered at 3 kHz.
The voltage clamp protocol to examine hNav1.7 currents was as follows. First, the standard current-voltage relationship was tested by pulsing the cell from the holding voltage (Vh) of −120 mV by a series of 5 msec long square-shaped test pulses incrementing in +10 mV steps over the membrane voltage range of −90 mV to +60 mV at the pace of stimulation of 0.5 Hz. This procedure determines the voltage that elicits the maximal current (Vmax). […] This procedure determines the voltage of full inactivation (Vfull). Third, the cell was repeatedly stimulated with the following protocol, first in the absence of the test compound then in its presence. The protocol consisted of depolarizing the cell from the holding potential of −120 mV to the Vfull value for 4.5 seconds then repolarizing the cell to the holding potential for 10 ms before applying the test pulse to the Vmax for 5 ms. The amount of inhibition produced by the test compound was determined by comparing the current amplitude elicited by the test pulse in the absence and presence of the compound.
Vehicle solution used to establish base line was also contacting 0.3% DMSO.
Data analysis: Data was analyzed off-line using Clampfit software (pClamp, v. 8; Axon Instruments) and graphed using GraphPad Prizm (v. 4.0) software.

For another test, the target named is human Nav1.7 (Homo sapiens (Human), UniProt Q15858). In words: FLIPR or FLIPR TETRA sodium dye assay with KCl and test article pre-incubation. It counts as cell-based. The source says:
For dominant selection of the Nav1.7-expressing clones, the expression plasmid co-expressed the neomycin resistance gene. […] Recombinant beta and gamma subunits were not introduced into this cell line. Additional cell lines expressing recombinant Nav1.7 cloned from other species can also be used, alone or in combination with various beta subunits, gamma subunits or chaperones.
Cell maintenance: Unless otherwise noted, cell culture reagents were purchased from Mediatech of Herndon, Va. The recombinant Nav1.7/HEK293 cells were routinely cultured in growth medium consisting of Dulbecco's […] containing 10% fetal bovine serum (FBS, Hyclone, Thermo Fisher Scientific, Logan, Utah), 100 U/mL penicillin, […], 2-4 mM L-glutamine, and […]. For natural, non-recombinant cell lines, the selective antibiotic was omitted, and additional media formulations can be applied as needed.
The intensity of this emission, but not the wavelength range, is increased when the dye is exposed to Na^+ ions, which it can bind with partial selectivity. Cells expressing Nav1.7 or other sodium channels were loaded with the CoroNa™ Green dye immediately in advance of the fluorescence assay, and then, after agonist stimulation, the mobilization of Na^+ ions was detected as the Na^+ ions flowed from the extracellular fluid into the cytoplasm through the activated sodium channel pores. The dye was stored in the dark as a lyophilized powder, and then an aliquot was dissolved immediately before the cell loading procedure, according to the instructions of the manufacturer to a stock concentration of 10 mM in DMSO. It was then diluted in the assay buffer to a 4× concentrated working solution, so that the final concentration of dye in the cell loading buffer was 5 μM.
These scorpion toxins inhibit the fast inactivation of their cognate target channels. Stock solutions of the agonists were prepared to 40 mM in DMSO (veratridine) and 1 mg/mL in dH2O (scorpion venom), and then diluted to make a 4× or 2× stock (depending on the particular assay) in assay buffer, the final concentration being 100 μM (veratridine) and 10 μg/mL (scorpion venom). Both of the agonists were purchased from Sigma Aldrich, St. Louis, Mo.
Test Compounds: Test compounds were dissolved in DMSO to yield 10 mM stock solutions. […] If a particular test article appeared to be especially potent, then the concentration curve was adjusted, e.g., to 10-fold lower concentrations, in order to perform the dose-response in a more relevant concentration range. Compound dilutions were added during the dye-loading and pre-stimulation step, and then again during the fluorescence assay, early in the kinetic read.
Data Analysis: The data were analyzed according to methods known to those skilled in the art or using the GraphPad® Prism 4.0 Program (available from GraphPad Software, San Diego, Calif.) to determine the IC50 value for the test article. At least one standard reference compound was evaluated during each experiment.
FLIPR® or FLIPR^TETRA® sodium dye assay with KCl and test article pre-incubation: Cells were prepared by plating the recombinant HEK293 cells or other host cells expressing either recombinant or non-recombinant, native, Nav1.7 alpha subunit, alone or in combination with various beta and gamma subunits at a density of ˜40,000 cells/well into a 96-well black, clear-bottom, PDL-coated plate. The assay can be adapted to 384-well or 1,536-well format, if desired, using proportionately less cells and media. […] For counter-screens of other voltage-gated sodium channels, the procedure was very similar, though optimal densities of cells, media and subsequent assay components can be fine-tuned for the particular cell line or isoform.

[1] abbreviates: read-out: FLIPR Nav1.7 IC50 (μM) ± SEM.
The mark [2] stands for this setting: whole-cell patch clamp, hNav1.7 expressing HEK-293 cells.
The mark [3] stands for this setting: sodium dye assay with KCl, recombinant human Nav1.7 in HEK293 cells, value ± SEM.

Structures are written as SMILES. Where two headings read alike, the source gives them in different places.

human Nav1.7, sequence (Q15858 other isoform, or with tags, fused parts or gaps): as above

For the molecule `NC(CO)Cc1c[nH]c2ccc(-c3ccc(Oc4ccccc4)cc3)cc12` (stereo not drawn) [Compound 10, 2-Amino-3-[5-(4-phenoxyphenyl)-1H-indol-3-yl]propan-1-ol], the Ki on hNav1.7 stood at 360 nM. Also, the IC50 on human Nav1.7 (setting [1]) worked out at 0.296 ± 0.087 µM.
With `CCN(CC)CCn1cc(C(O)C(N)=O)c2cc(-c3ccc(Oc4ccc(F)cc4)cc3)ccc21` (stereo not drawn) [Compound 179, 2-(1-(2-(Diethylamino)ethyl)-5-(4-(4-fluorophenoxy)phenyl)-1H-indol-3-yl)-2-hydroxyacetamide], on hNav1.7 (setting [2]), the inhibitory constant (Ki) came to 270 nM. Further, at human Nav1.7 (setting [3]), the IC50 came to 0.912 ± 0.079 µM.
In the case of `OC[C@@H](O)Cc1cn(C[C@H](O)CO)c2ccc(-c3ccc(Oc4ccc(F)cc4)cc3)cc12` [Compound 74, (2S,2′S)-3,3′-(5-(4-(4-Fluorophenoxy)phenyl)-1H-indole-1,3-diyl)bis(propane-1,2-diol)], the Ki at hNav1.7 (setting [2]) stood at 920 nM. The IC50 on human Nav1.7 (setting [3]) turned out to be 0.5 ± 0.091 µM.
For `N#Cc1cc(Oc2ccc(-n3cc(C[C@H](O)CO)c4c(C(O)CO)cccc43)cc2)ccc1C(F)(F)F` (stereo partly drawn) [Compound 141, 5-(4-(4-(1,2-Dihydroxyethyl)-3-((S)-2,3-dihydroxypropyl)-1H-indol-1-yl)phenoxy)-2-(trifluoromethyl)benzonitrile], the IC50 on human Nav1.7 (setting [3]) turned out to be 1.97 ± 0.494 µM.
Still for that read-out and setting: as for `N#Cc1ccc2c(C[C@H](O)CO)cn(-c3ccc(Oc4ccc(F)cc4)cc3)c2c1` [Compound 105, (S)-3-(2,3-Dihydroxypropyl)-1-(4-(4-fluorophenoxy)phenyl)-1H-indole-6-carbonitrile], the figure is 1.65 ± 0.438 µM; as for `NC(=O)C(N)Cc1c[nH]c2cc(-c3ccc(Oc4ccccc4)cc3)ccc12` (stereo not drawn) [Compound 15, 2-Amino-3-[6-(4-phenoxyphenyl)-1H-indol-3-yl]propionamide], 2.05 ± 0.094 µM.
Regarding `NC(=O)Cn1cc(C[C@H](O)CO)c2cc(-c3ccc(Oc4ccc(F)cc4)cc3)ccc21` [Compound 186, (S)-2-(3-(2,3-Dihydroxypropyl)-5-(4-(4-fluorophenoxy)phenyl)-1H-indol-1-yl)acetamide], the IC50 at human Nav1.7 (setting [3]) was determined as 0.717 ± 0.042 µM.
Same read-out and setting: as for `O=C(O)c1cccc2c1c(C[C@H](O)CO)cn2-c1ccc(Oc2ccc(F)cc2)cc1` [Compound 129, (S)-3-(2,3-Dihydroxypropyl)-1-(4-(4-fluorophenoxy)phenyl)-1H-indole-4-carboxylic acid], the figure is 3.33 ± 0.495 µM.
Consider `N#Cc1ccc(Oc2ccc(-n3cc(C(O)C(N)=O)c4ccccc43)cc2)cc1C(F)(F)F` (stereo not drawn) [Compound 193, 2-(1-(4-(4-Cyano-3-(trifluoromethyl)phenoxy)phenyl)-1H-indol-3-yl)-2-hydroxyacetamide], for which the IC50 on human Nav1.7 (setting [1]) is 0.414 ± 0.026 µM.
The same measure, in the same setting: in the case of `N#Cc1ccc(Oc2ccc(-n3cc(C(O)(C(N)=O)C(F)(F)F)c4ccccc43)cc2)cc1C(F)(F)F` (stereo not drawn) [Compound 192, 2-(1-(4-(4-Cyano-3-(trifluoromethyl)phenoxy)phenyl)-1H-indol-3-yl)-3,3,3-trifluoro-2-hydroxypropanamide] it was 0.475 ± 0.065 µM.
`OC[C@@H](O)Cc1cn(-c2ccc(Oc3ccc(C(F)(F)F)cc3)cc2)c2ccccc12` [Compound 80, (S)-3-(1-(4-(4-(Trifluoromethyl)phenoxy)phenyl)-1H-indol-3-yl)propane-1,2-diol]: the IC50 at human Nav1.7 (setting [3]) was found to be 0.524 ± 0.085 µM.
The same measure, in the same setting: in the case of `CCN(CC)CCn1cc(C[C@H](O)CO)c2cc(-c3ccc(Oc4ccc(F)cc4)cc3)ccc21` [Compound 182] it was 1.06 ± 0.026 µM.
In the case of `N#Cc1ccc(Oc2ccc(-n3cc(C[C@@H](O)CO)c4ccccc43)cc2)cc1` [Compound 77, (R)-4-(4-(3-(2,3-Dihydroxypropyl)-1H-indol-1-yl)phenoxy)benzonitrile], the IC50 on human Nav1.7 (setting [1]) amounted to 0.48 ± 0.087 µM.
In the case of `NC(Cc1c[nH]c2ccc(-c3ccc(Oc4ccccc4)cc3)cc12)C(=O)O` (stereo not drawn) [Compound 9, 2-Amino-3-[5-(4-phenoxyphenyl)-1H-indol-3-yl]propionic acid], at human Nav1.7 (setting [3]), the IC50 is more than 20 µM.
On the same count and under the same terms, in the case of `NC(=O)c1ccc2c(C[C@H](O)CO)cn(-c3ccc(Oc4ccc(F)cc4)cc3)c2c1` [Compound 123, (S)-3-(2,3-Dihydroxypropyl)-1-(4-(4-fluorophenoxy)phenyl)-1H-indole-6-carboxamide] it was 4.92 ± 0.822 µM; in that of `OCCn1cc(C[C@H](O)CO)c2cc(-c3ccc(Oc4ccc(F)cc4)cc3)ccc21` [Compound 200, (S)-3-(5-(4-(4-fluorophenoxy)phenyl)-1-(2-hydroxyethyl)-1H-indol-3-yl)propane-1,2-diol], 0.273 ± 0.061 µM; in that of `N#Cc1cccc2c1c(C[C@H](O)CO)cn2-c1ccc(Oc2ccc(F)cc2)cc1` [Compound 120, (S)-3-(2,3-Dihydroxypropyl)-1-(4-(4-fluorophenoxy)phenyl)-1H-indole-4-carbonitrile], 0.262 ± 0.066 µM.
With `NC(=O)c1nn(-c2ccc(Oc3ccccc3)cc2)c2ccccc12` [Compound 145, 1-(4-Phenoxyphenyl)-1H-indazole-3-carboxamide], the IC50 on human Nav1.7 (setting [1]) was 0.326 ± 0.043 µM.
With `CS(=O)(=O)NC(Cc1cn(-c2ccc(Oc3ccccc3)cc2)c2ccccc12)C(N)=O` (stereo not drawn) [Compound 39, 2-Methanesulfonylamino-3-[1-(4-phenoxyphenyl)-1H-indol-3-yl]propionamide], the IC50 at human Nav1.7 (setting [3]) stood at 1.01 ± 0.162 µM.
For `N#Cc1ccc(Oc2ccc(-n3cc(C[C@H](O)CO)c4ccccc43)cc2)cc1` [Compound 76, (S)-4-(4-(3-(2,3-Dihydroxypropyl)-1H-indol-1-yl)phenoxy)benzonitrile], at human Nav1.7 (setting [1]), the IC50 was found to be 0.501 ± 0.089 µM.
Turning to `OCc1cn(-c2ccc(Oc3ccc(C(F)(F)F)cc3)cc2)c2cnccc12` [Compound 164, (1-(4-(4-(Trifluoromethyl)phenoxy)phenyl)-1H-pyrrolo[2,3-c]pyridin-3-yl)methanol], the IC50 at human Nav1.7 (setting [3]) is 0.345 ± 0.027 µM.
`CCN(CC)CCn1ccc2cc(-c3ccc(Oc4ccc(F)cc4)cc3)ccc21` [Compound 177, N,N-Diethyl-2-(5-(4-(4-fluorophenoxy)phenyl)-1H-indol-1-yl)ethanamine]: at human Nav1.7 (setting [1]), the IC50 came out at 0.895 ± 0.154 µM.
On the same count and under the same terms, in the case of `N#Cc1cc(Oc2ccc(-n3cc(C(O)CO)c4ccccc43)cc2)ccc1C(F)(F)F` (stereo not drawn) [Compound 51, 5-{4-[3-(1,2-Dihydroxyethyl)-1H-indol-1-yl]phenoxy}-2-(trifluoromethyl)benzonitrile] it was 0.26 ± 0.009 µM.
Take `OC[C@@H](O)Cc1cn(-c2ccc(Oc3ccc(C(F)(F)F)cn3)cc2)c2ccccc12` [Compound 83, (S)-3-(1-(4-((5-(Trifluoromethyl)pyridin-2-yl)oxy)phenyl)-1H-indol-3-yl)propane-1,2-diol]: the 50% inhibitory concentration (IC50) at human Nav1.7 (setting [3]) was 0.257 ± 0.067 µM.
